One may read the EC50 as the concentration giving half of the maximal effect.

The results in this text go back to ChEMBL document CHEMBL4699423, “Photocontrolled activation of small molecule cancer therapeutics” (RSC Med Chem, 2020).

The subject of data set [1] is MDA-MB-231. Put plainly: Cytotoxicity against human MDA-MB-231 cells. Format: functional, cell-based.
Data set [2] has as its system MDA-MB-231. Put plainly: Cytotoxicity against human MDA-MB-231 cells in dark. Format: functional, cell-based.
In the next data set the test system is HCT-116. As to the kind of experiment: Cytotoxicity against human HCT-116 cells. Type of data set: functional. As to conditions: read-out: LD50 (the source's name).
A further data set concerns MDA-MB-468. As to the kind of experiment: Cytotoxicity against human MDA-MB-468 cells. Format: functional. Conditions: read-out: LD50 (the source's name).
The nature of data set [3]: Cytotoxicity against human MCF-10A cells. Type of data set: cell-based. Conditions: read-out: LD50 (the source's name).

`COc1ccc(/N=N\c2cc(OC)c(OC)c(OC)c2)cc1O` had an EC50 in the data set on MDA-MB-231 [1] of 500 nM.
In turn, `COc1ccc(/N=N/c2cc(OC)c(OC)c(OC)c2)cc1O` showed an EC50 in the data set with MDA-MB-231 [2] of 38000 nM.
With `CC(C)C[C@H](NC(=O)[C@@H](NC(=O)c1ccc(/N=N/c2ccc(-c3ccccc3)cc2)cc1)[C@@H](C)O)B1OC2C[C@@H]3C[C@H](C2O1)C3(C)C` (stereo partly drawn), the CC50 in the data set with HCT-116 was 246 nM; in the data set with MDA-MB-468, 683 nM; in data set [3] it was greater than 5000 nM.
Regarding `CC(C)C[C@H](NC(=O)[C@@H](NC(=O)c1ccc(/N=N\c2ccc(-c3ccccc3)cc2)cc1)[C@@H](C)O)B1OC2C[C@@H]3C[C@H](C2O1)C3(C)C` (stereo partly drawn), the CC50 worked out at 212 nM in the data set on HCT-116, 1030 nM with MDA-MB-468 and 144 nM in data set [3].
